Experimental data from patent US20070128217A1 (priority 2003, published 2007).

What was measured:
[1] = system: rabbit serum obtained by immunizing a rabbit with the SARS-CoV strain Frankfurt 1; format: binding; set-up: Binding of a rabbit serum to linear peptides / Binding of a rabbit serum to looped peptides / Rabbit serum linear peptides / Rabbit serum looped peptides / Binding of a rabbit serum to linear peptides of protein N of SARS-CoV Urbani (Rabbit serum linear peptides) / Binding of a rabbit serum to looped/cyclic peptides of protein N of SARS-CoV Urbani (Rabbit serum looped peptides): unit not given here
[2] = system: control sera (pooled serum of ten healthy LUMC hospital workers; commercial negative donor pooled serum from the Dutch bloodbank); format: binding, human; set-up: Binding of Control serum LUMC to linear peptides / Binding of Control serum Blood-bank to linear peptides / Binding of Control serum LUMC to looped peptides / Binding of Control Serum Blood-Bank to Looped peptides / Binding of Control serum LUMC to linear peptides of the protein M of SARS-CoV Urbani / Binding of Control serum Blood-bank to linear peptides of the protein M of SARS-CoV Urbani / Binding of Control serum LUMC to looped peptides of the protein M of SARS-CoV Urbani / Binding of Control Serum Blood-Bank to Looped peptides of the protein M of SARS-CoV Urbani: unit not given here
[3] = system: antibodies in sera from SARS patients (sera 1a, 1b, 2, 6, 37, 62, London, SARS-yellow, SARS-green); format: binding, human; set-up: Binding of serum 6 to linear peptides of protein X1 of SARS-CoV Urbani / Binding of serum 37 to linear peptides of protein X1 of SARS-CoV Urbani / Binding of serum 6 to looped/cyclic peptide (PEPSCAN-ELISA) / Binding of serum 37 to looped/cyclic peptide (PEPSCAN-ELISA) / Binding of serum 37 to looped/cyclic peptides of protein X1 of SARS-CoV Urbani / Binding of serum 6 to linear peptides of protein X2 / Binding of serum 37 to linear peptides of protein X2 / Binding of serum 37 to looped/cyclic peptides of protein X2 of SARS-CoV Urbani / Binding of serum 6 to linear peptides of protein M of SARS-CoV Urbani / Binding of serum 37 to linear peptides of protein M of SARS-CoV Urbani / Binding of serum 6 to looped/cyclic peptides of protein M of SARS-CoV Urbani / Binding of serum 37 to looped/cyclic peptides of protein M of SARS-CoV Urbani / Binding of serum 6 to linear peptides of protein X3 of SARS-CoV Urbani / Binding of serum 37 to linear peptides of protein X3 of SARS-CoV Urbani / Binding of serum 37 to looped/cyclic peptides of protein X3 of SARS-CoV Urbani / Binding of serum 6 to linear peptides of protein X4 of SARS-CoV Urbani / Binding of serum 37 to linear peptides of protein X4 of SARS-CoV Urbani / Binding of serum 37 to looped/cyclic peptides of protein X4 of SARS-CoV Urbani / Binding of serum 6 to linear peptides of protein X5 of SARS-CoV Urbani / Binding of serum 37 to linear peptides of protein X5 of SARS-CoV Urbani / Binding of serum 37 to looped/cyclic peptides of protein X5 of SARS-CoV Urbani / Binding of serum 6 to linear peptides of protein N of SARS-CoV Urbani / Binding of serum 37 to linear peptides of protein N of SARS-CoV Urbani / Binding of serum 6 to linear peptide (PEPSCAN-ELISA) / Binding of serum 1a to looped/cyclic peptides of protein N of SARS-CoV Urbani / Binding of serum 1b to looped/cyclic peptides of protein N of SARS-CoV Urbani / Binding of serum 2 to looped/cyclic peptides of protein N of SARS-CoV Urbani / Binding of serum 6 to looped/cyclic peptides of protein N of SARS-CoV Urbani / Binding of serum 37 to looped/cyclic peptides of protein N of SARS-CoV Urbani / Binding of serum 62 to looped/cyclic peptides of protein N of SARS-CoV Urbani / Binding of serum London to looped/cyclic peptides of protein N of SARS-CoV Urbani / Binding of serum SARS-green to looped/cyclic peptides of protein N of SARS-CoV Urbani: unit not given here

KEITVATSRTLSYYK
0.6: Binding of Control serum LUMC to linear peptides of the protein M of SARS-CoV Urbani [2] | Binding of serum 1a to looped/cyclic peptides of protein M of SARS-CoV Urbani [3] | Binding of serum 1b to linear peptides of protein M of SARS-CoV Urbani [3] | Binding of serum 2 to linear peptides of protein M of SARS-CoV Urbani [3] | Binding of serum 37 to looped/cyclic peptides of protein M of SARS-CoV Urbani [3] | Binding of serum 62 to linear peptides of protein M of SARS-CoV Urbani [3]
0.4: Rabbit serum linear peptides [1] | Binding of serum London to looped/cyclic peptides of protein M of SARS-CoV Urbani [3] | Binding of serum SARS-green to linear peptides of protein M of SARS-CoV Urbani [3]
0.5: Rabbit serum looped peptides [1] | Binding of serum 1b to looped/cyclic peptides of protein M of SARS-CoV Urbani [3] | Binding of serum 37 to linear peptides of protein M of SARS-CoV Urbani [3] | Binding of serum 62 to looped/cyclic peptides of protein M of SARS-CoV Urbani [3] | Binding of serum SARS-yellow to looped/cyclic peptides of protein M of SARS-CoV Urbani [3]
0.0: Binding of serum 6 to linear peptides of protein M of SARS-CoV Urbani [3]
0.8: Binding of Control serum Blood-bank to linear peptides of the protein M of SARS-CoV Urbani [2] | Binding of serum 2 to looped/cyclic peptides of protein M of SARS-CoV Urbani [3]
0.3: Binding of serum London to linear peptides of protein M of SARS-CoV Urbani [3]
1.3: Binding of serum 6 to looped/cyclic peptides of protein M of SARS-CoV Urbani [3]
0.2: Binding of serum SARS-green to looped/cyclic peptides of protein M of SARS-CoV Urbani [3] | Binding of serum SARS-yellow to linear peptides of protein M of SARS-CoV Urbani [3]
0.7: Binding of Control Serum Blood-Bank to Looped peptides of the protein M of SARS-CoV Urbani [2] | Binding of Control serum LUMC to looped peptides of the protein M of SARS-CoV Urbani [2] | Binding of serum 1a to linear peptides of protein M of SARS-CoV Urbani [3]

KEPCPSGTYEGNSPF
0.4: Rabbit serum linear peptides [1] | Binding of serum 2 to linear peptides of protein X4 of SARS-CoV Urbani [3] | Binding of serum 6 to linear peptides of protein X4 of SARS-CoV Urbani [3] | Binding of serum SARS-green to looped/cyclic peptides of protein X4 of SARS-CoV Urbani [3]
0.5: Binding of Control Serum Blood-Bank to Looped peptides [2]
0.7: Binding of serum 1a to linear peptides of protein X4 of SARS-CoV Urbani [3] | Binding of serum 37 to linear peptides of protein X4 of SARS-CoV Urbani [3] | Binding of serum 37 to looped/cyclic peptides of protein X4 of SARS-CoV Urbani [3] | Binding of serum SARS-yellow to linear peptides of protein X4 of SARS-CoV Urbani [3]
0.8: Binding of Control serum LUMC to looped peptides [2] | Binding of serum 1a to looped/cyclic peptides of protein X4 of SARS-CoV Urbani [3] | Binding of serum 62 to linear peptides of protein X4 of SARS-CoV Urbani [3] | Binding of serum London to linear peptides of protein X4 of SARS-CoV Urbani [3]
0.3: Rabbit serum looped peptides [1] | Binding of serum London to looped/cyclic peptides of protein X4 of SARS-CoV Urbani [3] | Binding of serum SARS-yellow to looped/cyclic peptides of protein X4 of SARS-CoV Urbani [3]
0.6: Binding of Control serum Blood-bank to linear peptides [2] | Binding of Control serum LUMC to linear peptides [2] | Binding of serum 1b to linear peptides of protein X4 of SARS-CoV Urbani [3] | Binding of serum 1b to looped/cyclic peptides of protein X4 of SARS-CoV Urbani [3] | Binding of serum 2 to looped/cyclic peptides of protein X4 of SARS-CoV Urbani [3] | Binding of serum 6 to looped/cyclic peptides of protein X4 of SARS-CoV Urbani [3] | Binding of serum 62 to looped/cyclic peptides of protein X4 of SARS-CoV Urbani [3] | Binding of serum SARS-green to linear peptides of protein X4 of SARS-CoV Urbani [3]

KFALTCTSTHFAFAC
0.7: Binding of Control serum Blood-bank to linear peptides [2] | Binding of Control serum LUMC to linear peptides [2] | Binding of serum 1b to looped/cyclic peptides of protein X4 of SARS-CoV Urbani [3] | Binding of serum 6 to looped/cyclic peptides of protein X4 of SARS-CoV Urbani [3] | Binding of serum 37 to looped/cyclic peptides of protein X4 of SARS-CoV Urbani [3]
0.6: Rabbit serum looped peptides [1] | Binding of serum 1b to linear peptides of protein X4 of SARS-CoV Urbani [3] | Binding of serum SARS-yellow to linear peptides of protein X4 of SARS-CoV Urbani [3]
0.9: Binding of Control Serum Blood-Bank to Looped peptides [2] | Binding of serum 2 to looped/cyclic peptides of protein X4 of SARS-CoV Urbani [3] | Binding of serum 62 to looped/cyclic peptides of protein X4 of SARS-CoV Urbani [3]
0.5: Rabbit serum linear peptides [1] | Binding of serum 2 to linear peptides of protein X4 of SARS-CoV Urbani [3]
1.0: Binding of serum 1a to looped/cyclic peptides of protein X4 of SARS-CoV Urbani [3]
0.8: Binding of Control serum LUMC to looped peptides [2] | Binding of serum 1a to linear peptides of protein X4 of SARS-CoV Urbani [3] | Binding of serum 6 to linear peptides of protein X4 of SARS-CoV Urbani [3] | Binding of serum 37 to linear peptides of protein X4 of SARS-CoV Urbani [3] | Binding of serum 62 to linear peptides of protein X4 of SARS-CoV Urbani [3] | Binding of serum London to linear peptides of protein X4 of SARS-CoV Urbani [3] | Binding of serum SARS-green to looped/cyclic peptides of protein X4 of SARS-CoV Urbani [3] | Binding of serum SARS-yellow to looped/cyclic peptides of protein X4 of SARS-CoV Urbani [3]
0.4: Binding of serum London to looped/cyclic peptides of protein X4 of SARS-CoV Urbani [3] | Binding of serum SARS-green to linear peptides of protein X4 of SARS-CoV Urbani [3]

KFTTSLSLHKLLQTL
0.2: Binding of a rabbit serum to linear peptides [1]
0.3: Binding of serum SARS-yellow to looped/cyclic peptides of protein X2 of SARS-CoV Urbani [3]
0.4: Binding of a rabbit serum to looped peptides [1] | Binding of Control serum LUMC to linear peptides [2] | Binding of serum 1b to linear peptides of protein X2 [3] | Binding of serum 1b to looped/cyclic peptides of protein X2 of SARS-CoV Urbani [3] | Binding of serum 2 to linear peptides of protein X2 [3] | Binding of serum 6 to looped/cyclic peptides of protein X2 of SARS-CoV Urbani [3] | Binding of serum SARS-green to linear peptides of protein X2 [3] | Binding of serum SARS-green to looped/cyclic peptides of protein X2 of SARS-CoV Urbani [3]
0.5: Binding of Control Serum Blood-Bank to Looped peptides [2] | Binding of Control serum LUMC to looped peptides [2] | Binding of serum 1a to linear peptides of protein X2 [3] | Binding of serum 1a to looped/cyclic peptides of protein X2 of SARS-CoV Urbani [3] | Binding of serum 2 to looped/cyclic peptides of protein X2 of SARS-CoV Urbani [3] | Binding of serum 37 to linear peptides of protein X2 [3] | Binding of serum 37 to looped/cyclic peptides of protein X2 of SARS-CoV Urbani [3] | Binding of serum 62 to looped/cyclic peptides of protein X2 of SARS-CoV Urbani [3] | Binding of serum London to linear peptides of protein X2 [3] | Binding of serum SARS-yellow to linear peptides of protein X2 [3]
0.6: Binding of Control serum Blood-bank to linear peptides [2] | Binding of serum 6 to linear peptides of protein X2 [3] | Binding of serum 62 to linear peptides of protein X2 [3] | Binding of serum London to looped/cyclic peptides of protein X2 of SARS-CoV Urbani [3]

KGFQFICNLLLLFVT
1.1: Binding of serum London to looped/cyclic peptide (PEPSCAN-ELISA) [3]
0.4: Binding of serum 1b to looped/cyclic peptide (PEPSCAN-ELISA) [3] | Binding of serum 2 to looped/cyclic peptide (PEPSCAN-ELISA) [3] | Binding of serum SARS-green to looped/cyclic peptide (PEPSCAN-ELISA) [3]
0.5: Binding of a rabbit serum to looped peptides [1] | Binding of Control Serum Blood-Bank to Looped peptides [2] | Binding of Control serum LUMC to looped peptides [2] | Binding of serum 1b to linear peptides of protein X1 of SARS-CoV Urbani [3] | Binding of serum 6 to linear peptides of protein X1 of SARS-CoV Urbani [3]
0.2: Binding of serum SARS-green to linear peptides of protein X1 of SARS-CoV Urbani [3]
0.3: Binding of serum London to linear peptides of protein X1 of SARS-CoV Urbani [3]
0.6: Binding of a rabbit serum to linear peptides [1] | Binding of serum 1a to linear peptides of protein X1 of SARS-CoV Urbani [3] | Binding of serum 1a to looped/cyclic peptide (PEPSCAN-ELISA) [3] | Binding of serum 2 to linear peptides of protein X1 of SARS-CoV Urbani [3] | Binding of serum 37 to linear peptides of protein X1 of SARS-CoV Urbani [3] | Binding of serum 37 to looped/cyclic peptide (PEPSCAN-ELISA) [3] | Binding of serum 62 to looped/cyclic peptide (PEPSCAN-ELISA) [3] | Binding of serum SARS-yellow to linear peptides of protein X1 of SARS-CoV Urbani [3] | Binding of serum SARS-yellow to looped/cyclic peptide (PEPSCAN-ELISA) [3]
0.7: Binding of Control serum Blood-bank to linear peptides [2] | Binding of Control serum LUMC to linear peptides [2] | Binding of serum 62 to linear peptides of protein X1 of SARS-CoV Urbani [3]
1.0: Binding of serum 6 to looped/cyclic peptide (PEPSCAN-ELISA) [3]
